The values below come from patent publication US20230372319A1, “Combination Treatment of Cancer” (Ares Trading S.A., priority 2020, published 2023).

Usually IC50 stands for the concentration that gives 50% inhibition.

The subject of test [1] is MDA-MB-231 human breast cancer. Nature of the test: MDA-MB-231 breast cancer model. It counts as in vivo. To be noted: NOD/SCID mice, s.c.; bintrafusp alfa 492 μg i.v. BiWx4; niraparib 50 mg/kg p.o. QDx28; day 41; vs isotype control or monotherapies as stated.
Experimental: NOD/SCID mice were subcutaneously inoculated with MDA-MB-231 cells (10×10^6) in the right flank (day −19). […] Tumor volumes were measured twice weekly and presented as mean ±SEM or as individual tumor volumes. P-values were calculated by two-way ANOVA with Tukey's post-test.
MDA-MB-231 (BRCA-wt) cells were obtained from ATCC (ATCC® HTB-26™) and were cultured in Leibovitz's L-15 supplemented with 15% heat inactivated fetal bovine serum, 100 U/ml penicillin and 100 μg/ml streptomycin at 37° C. in an atmosphere of 5% CO2 in air. […] Cells were cultured under aseptic conditions and incubated at 37° C. with 5% CO2. Cells were passaged before in vivo implantation and adherent cells were harvested with TrypLE Express. […]
(§1) Tumor sizes were measured twice per week with digital calipers and recorded automatically using WinWedge software. Tumor volumes were calculated with the following formula: tumor volume (mm^3)=tumor length×width×height×0.5236. Tumor growth inhibition (TGI) was calculated with the following formula: TGI (%)=[1−(Ti−T0)/(Vi−V0)]×100, where Ti is the average tumor volume (mm^3) of a treatment group on a given day, T0 is the average tumor volume of the treatment group on the first day of treatment, Vi is the average tumor volume of the vehicle control group on the same day as Ti, and V0 is the average tumor volume of the vehicle control group on the first day of treatment. […]
The subject of test [2] is RENCA cells. To be noted: BALB/c mice, day 12; bintrafusp alfa 492 μg i.v. days 0, 2, 5; niraparib 50 mg/kg p.o. days 0-11.
Experimental: BALB/c mice were inoculated orthotopically with RENCA cells (0.5×10^5) in the left kidney (day −6). […] Mice were euthanized at day 12 and both kidneys were weighed. The weight of the tumor bearing left kidney was divided by the weight of the bilateral right kidney to calculate the kidney mass ratio. Individual kidney mass ratios were plotted, with a line representing the median.
The RENCA cells were obtained from ATCC (ATCC® CRL-2947™) and were cultured in RPMI-1640 with 10% heat inactivated fetal bovine serum and 0.1 mM non-essential amino acids. […] Cells were cultured under aseptic conditions and incubated at 37° C. with 5% CO2. […]
as §1
Test [3] concerns AT-3 cells. Briefly: Orthotopic AT-3 breast cancer model. The format is in vivo, C57BL/6 mice. To be noted: for median survival: isotype control 13 days; for responders (mice with tumor volumes<1 σ of the control group mean): day 13 post treatment start, n=10 mice/group.
Experimental: C57BL/6 mice were inoculated orthotopically with AT3 cells (0.5×10^6) in the mammary fat pad (day −11). […] Tumor volumes were measured twice weekly. In the lower plot, individual tumor volumes at day 13 are presented with a line representing the median tumor volume and error bars showing the 95% confidence intervals. […] P-values were calculated by two-way ANOVA with Tukey's post-test.
AT-3 cells were obtained from Sigma and were cultured in DMEM supplemented with 10% FBS, 1 mM sodium pyruvate, 2 mM non-essential amino acids, 15 mM HEPES, and 1×β-mercaptoethanol. […] Cells were cultured under aseptic conditions and incubated at 37° C. with 5% CO2. Cells were passaged before in vivo implantation and adherent cells were harvested with TrypLE Express.
For the efficacy study, 0.5×10^6 AT-3 cells were inoculated orthotopically into the right lower mammary at pad of C57BL/6 mice on day −11. Treatment was initiated on day 0 when average tumor volume reached ˜50 mm^3. Mice were sacrificed when tumor volumes reached ˜1000 mm^3.
Mice were randomized into treatment groups according to tumor volume on the day of treatment initiation (day 0).
The isotype control is a mutated version of anti-PD-L1, which completely lacks PD-L1 binding. In tumor-bearing mice, bintrafusp alfa (492 μg) or isotype control (400 μg) were administered with an intravenous (i.v.) injection in 0.2 mL PBS.
Radiation therapy (RT) was delivered at 8 Grey (Gy) on days 0-3.
Tumor sizes were measured twice per week with digital calipers and recorded automatically using WinWedge software. Tumor volumes were calculated with the following formula: tumor volume (mm^3)=tumor length×width×height×0.5236. Tumor growth inhibition (TGI) was calculated with the following formula: TGI (%)=[1−(Ti−T0)/(Vi−V0)]×100, where Ti is the average tumor volume (mm^3) of a treatment group on a given day, T0 is the average tumor volume of the treatment group on the first day of treatment, Vi is the average tumor volume of the vehicle control group on the same day as Ti, and V0 is the average tumor volume of the vehicle control group on the first day of treatment. To compare the percentage survival between different treatment groups, Kaplan-Meier survival curves were generated. Body weight was measured twice weekly and mice were sacrificed when their tumor volume exceeded 2,500 mm^3 for s.c. and intramuscular tumors and 1,000 mm^3 for mammary orthotopic tumors.
For test [4], the system named is B16F10 cells. Briefly: Subcutaneous B16F10 melanoma model. It counts as in vivo. To be noted: C57BL/6 mice, s.c.; bintrafusp alfa 492 μg i.v. days 0, 3, 6; niraparib 50 mg/kg p.o. QDx14; days 15/19; vs isotype control or monotherapies as stated.
Experimental: C57BLJ6 mice were inoculated subcutaneously with B16F10 cells (0.5×10^6) in the flank. […] Tumor volumes were measured twice weekly and presented as mean ±SEM or as individual tumor volumes. P-values were calculated by two-way ANOVA with Tukey's or Sidak's post-test.
B16F10 cells were obtained from (ATCC) and were cultured in Dulbecco's Modified Eagle's medium (DMEM) supplemented with 10% fetal bovine serum (FBS). […] Cells were cultured under aseptic conditions and incubated at 37° C. with 5% CO2. Cells were passaged before in vivo implantation and adherent cells were harvested with TrypLE Express. […]
as §1
Test [5] concerns PARP activity in various cell lines. The note with it: cited from earlier work.
Test [6] concerns MDA-MB-436 human breast cancer cell line. Nature of the test: MDA-MB-436 breast cancer model. The note with it: NOD/SCID mice, bintrafusp alfa 492 μg i.v. BiWx4, niraparib 35 mg/kg p.o. QDx28. It counts as in vivo.
Experimental: NOD/SCID mice were inoculated with MDA-MB-436 cells (10×10^6) in the right flank (day −19). […] Tumor volumes were measured twice weekly and presented as mean ±SEM or as individual tumor volumes. P-values were calculated by two-way ANOVA with Tukey's or Sidak's post-test.
MDA-MB-436 (BRCA1-mut) cells were obtained from American Type Culture Collection (ATCC® HTB-130™) and were cultured in RPMI-1640 supplemented with 10% heat inactivated fetal bovine serum, 100 U/ml penicillin and 100 μg/ml streptomycin at 37° C. in an atmosphere of 5% CO2 in air. […] Cells were cultured under aseptic conditions and incubated at 37° C. with 5% CO2. […]
as §1

On to “bintrafusp alfa: anti-PD-L1:TGFβRII fusion protein; human IgG1 antibody against PD-L1 fused to extracellular domain of human TGF-β receptor II; SEQ ID NO: 7 and 8”, for which the “tumor growth (tumor volume), in words” value is listed as “significantly reduced tumor growth” in test [1] and “neither bintrafusp alfa nor niraparib monotherapies significantly reduced tumor growth” in test [4]. For the same compound, the “relative kidney tumor burden: ratio of mass of tumor bearing kidney to bilateral normal kidney (median)” value in test [2] amounted to 3.74. For the same compound, the “tumor growth relative to isotype control or bintrafusp alfa monotherapy, in words” value in test [3] (C57BL/6 mice, day 13, bintrafusp alfa 492 μg i.v. days 0, 3, 6, niraparib 50 mg/kg p.o. days 0-13) is reported as “did not significantly reduce tumor growth”. Also, the median survival in test [3] (C57BL/6 mice) turned out to be 13 days. Moreover, the “responders (mice with tumor volumes<1 σ of the control group mean)” value in test [3] was 1/10.
On to `NC(=O)c1cccc2cn(-c3ccc([C@@H]4CCCNC4)cc3)nc12` [niraparib, (3S)-3-[4-{7-(aminocarbonyl)-2H-indazol-2-yl}phenyl]piperidine], for which, in test [5] (PARP activity stimulated by DNA damage caused by hydrogen peroxide), the “inhibitory concentration at 90% of control (1090) of PARP activity in cells” value is ~50 nM. Besides, in test [5] (read-out: IC50 of PARP activity in cells, PARP activity stimulated by DNA damage caused by hydrogen peroxide), the 50% inhibitory concentration (IC50) is ~4 nM. Also, the “tumor growth (tumor volume), in words” value in test [1] is recorded as “significantly reduced tumor growth”; in test [6] (vs isotype control or monotherapy as stated, days 41/69) it was “significantly inhibited tumor growth”; in test [4], “neither bintrafusp alfa nor niraparib monotherapies significantly reduced tumor growth”. This compound also showed a median survival in test [3] (C57BL/6 mice) of 13 days. In addition, in test [3], the “responders (mice with tumor volumes<1 σ of the control group mean)” value is recorded as 5/10. The “median time to disease progression after stopping treatment” value in test [6] turned out to be 42.5 days.
